Where a name gives a salt, the structure may show the parent alone. Read-outs that look alike come from different tables or passages of the source.
Assay: MIC of test compounds against various organisms
Assay type: cell-based
Description: The MIC (μg/ml) of test compounds against various organisms was determined including: S. epidermidis CL7, S. aureus WCUH29, S. pneumoniae 1629, S. pyogenes CN10, H. influenzae ATCC 49247, E.faecalis 2, M. catarrhalis Ravasio, E. coli 7623.

[1] = versus all these organisms (the eight strains of b406), read-out: MIC
[2] = versus some of these organisms (of the eight strains; which ones not given), read-out: MIC

Row | MIC [2] | Compound | other results
1 |  | COc1ccc2nccc(NC(=O)[C@]3(O)C=C[C@@H](NCc4ccc5c(n4)NC(=O)CS5)CC3)c2n1 (racemic) [Example 1, (1R,4S)-1-Hydroxy-4-[(3-oxo-3,4-dihydro-2H-pyrido[3,2-b][1,4]thiazin-6-ylmethyl)-amino]-cyclohex-2-enecarboxylic acid (6methoxy-[1,5]naphthyridin-4-yl)-amide dihydrochloride and (1S,4R)-1-Hydroxy-4-[(3-oxo-3,4-dihydro-2H-pyrido[3,2-b][1,4]thiazin-6-ylmethyl)-amino]-cyclohex-2-enecarboxylic acid (6-methoxy-[1,5]naphthyridin-4-yl)-amide dihydrochloride] | MIC: ≤ 2 µg/mL
2 |  | COc1ccc2nccc(NC(=O)[C@]3(O)C=C[C@@H](NCc4ccc5c(n4)NC(=O)CO5)CC3)c2n1 (racemic) [Example 2, (1R,4S)-1-Hydroxy-4-[(3-oxo-3,4-dihydro-2H-pyrido[3,2-b][1,4]oxazin-6-ylmethyl)-amino]-cyclohex-2-enecarboxylic acid (6-methoxy-[1,5]naphthyridin-4-yl)-amide dihydrochloride and (1S,4R)-1-Hydroxy-4-[(3-oxo-3,4-dihydro-2H-pyrido[3,2-b][1,4]oxazin-6-ylmethyl)-amino]-cyclohex-2-enecarboxylic acid (6-methoxy-[1,5]naphthyridin-4-yl)-amide dihydrochloride] | MIC: ≤ 2 µg/mL
3 |  | COc1ccc2nccc(NC(=O)[C@@]3(O)C=C[C@H](NCc4cc5c(cn4)OCCO5)CC3)c2n1 [Example 3] | MIC [1]: ≤ 2 µg/mL
4 |  | COc1ccc2nccc(NC(=O)[C@@]3(O)C=C[C@H](NCc4cnc5c(c4)OCCO5)CC3)c2n1 [Example 5] | MIC [1]: ≤ 2 µg/mL
5 | ≤ 1 µg/mL | COc1ccc2nccc(NC(=O)[C@@]3(O)C=C[C@H](NCc4ccc5c(n4)OCCO5)CC3)c2n1 [Example 6] | 
6 | ≤ 1 µg/mL | COc1ccc2nccc(NC(=O)[C@@]3(O)C=C[C@H](NCc4ncc5c(n4)OCCO5)CC3)c2n1 [Example 7] | 
7 | ≤ 1 µg/mL | COCCOc1c(F)ccc2nccc(NC(=O)[C@@]3(O)C=C[C@H](NCc4cc5c(cn4)OCCO5)CC3)c12 [Example 11] | 
8 | ≤ 1 µg/mL | COc1ccc2nccc(NC(=O)[C@@]3(O)C=C[C@H](NCc4cc5c(cn4)OCCO5)CC3)c2c1F [Example 12] | 

Source: patent US20060040925A1, “Aminocyclohexene quinolines and their azaisosteric analogues with antibacterial activity” (priority 2002, published 2006)
